# Assay results published in US20210292417A1, “HISTAMINE DIHYDROCHLORIDE COMBINATIONS AND USES THEREOF” (Immune Pharmaceuticals LTD., priority 2016, published 2021).
# Columns and labels:
# CD14+ CMML cells [1] = assay: NK cell degranulation against primary CMML cells; type: cell-based, human; conditions: IL-2-stimulated NK cells; lintuzumab 1 μg/ml; HDC 100 μM added to lintuzumab
# Description: Assays of NK cell degranulation and ADCC. NK cell degranulation and cytotoxicity against patient-derived, malignant monocytes were assessed in experiments using lintuzumab (Abbvie, Stockholm, Sweden), a humanized anti-CD33 antibody. NK cells from healthy donors were co-incubated with monocytes, labeled with CellTrace violet stain (Life Technologies), in the presence of anti-CD107a-PE-Cy7 antibody (BD Pharmingen) and anti-oxidative compounds for four hours at 37° C. and 5% CO2. Thereafter, the cells were stained with LIVE/DEAD® fixable dead cell stain (Life Technologies) and assessed for lysis of monocytes and NK cell degranulation by flow cytometry. For culture experiments, cytotoxicity assays and confocal microscopy, Iscoves' modified Dulbecco minimum essential medium (IDMEM) supplemented with 10% human AB+ serum was used.
# [2] = tested on: NK cells and CD8+ T cells co-cultured with CD14+ CMML cells; assay: CMML cell-induced lymphocyte cell death, overnight co-culture; type: cell-based, human; conditions: DPI 3 μM; for CMML-induced lymphocyte apoptosis / cell death: NK cells and CD8+ T cells, HDC 100 μM, catalase 200U/ml, PJ34 0.5 μM
# Description: (§1) Lymphocyte cell death. Isolated lymphocyte subsets were co-cultured overnight with primary leukemic monocytes from CMML patients with or without NOX2 inhibitors or other anti-oxidative compounds at 37° C. in 5% CO2. Lymphocyte cell death was assessed by flow cytometry after staining with a LIVE/DEAD® fixable dead cell stain (Life Technologies). In receptor expression assays, purified NK cells where co-cultured overnight with monocytes in the presence or absence of the PARP-1 inhibitor PJ34 ([…]). The following antibodies were used for receptor expression assessment: NKp46-PE (clone: 9E2) and DNAM-1-PE-Cy7 (clone: DX11) from Miltenyi Biotec. NKp80-APC (clone: 4A4.D10) and CD16-BV605 (clone: 3G8) from BD Pharmingen.
# Subsets of CD8+ T cells were stained and sorted on a 3-laser […] II flow cytometer (BD Biosciences). The following antibodies were used to distinguish the T cell populations: CD3-Pacific Blue (clone: S4.1) from Life technologies. CD8-APC-H7 (clone: SK1), CD45RA-APC (clone: HI100), CD45RO-PE (clone: UCHL1) and CCR7-PE-Cy7 (clone: G043H7) all from BD Pharmingen. CD8+ T cell subsets were further defined as follows: naive T cells (TN) as CD45RA CCR7+, T central memory cells (TCM) as CD45ROCCR7+, T effector memory cells (TEM) as CD45ROCCR7^− and T effector cells (TEff) as CD45RACCR7^−.
# H2R = H2R (Homo sapiens, UniProt P25021); conditions: thioether group replaced by an ether; cited from earlier work
# Sequence of H2R (P25021 whole entry, species assumed): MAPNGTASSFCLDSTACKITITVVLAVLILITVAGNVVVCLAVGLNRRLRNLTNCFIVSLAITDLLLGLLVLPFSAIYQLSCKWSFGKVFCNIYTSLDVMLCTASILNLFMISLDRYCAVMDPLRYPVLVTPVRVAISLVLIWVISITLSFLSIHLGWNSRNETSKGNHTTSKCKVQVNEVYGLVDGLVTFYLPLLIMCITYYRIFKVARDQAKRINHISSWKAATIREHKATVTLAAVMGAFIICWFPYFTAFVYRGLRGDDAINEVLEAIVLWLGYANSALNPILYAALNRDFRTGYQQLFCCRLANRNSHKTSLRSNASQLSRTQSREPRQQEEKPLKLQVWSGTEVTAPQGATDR
# NK cells = assay: NK cell receptor expression after exposure to PJ34; type: cell-based, human; conditions: PJ34 in the absence of ROS-producing cells
# Description: as §1
# CD14+ CMML cells [3] = assay: Extracellular ROS production by isoluminol-enhanced chemiluminescence; type: cell-based, human; conditions: FACS-sorted CD14+ CMML cells stimulated with fMLF; HDC 50 or 100 μM
# Description: ROS production. The extracellular ROS production of primary CMML cells was measured by isoluminol-enhanced chemiluminescence as described. In brief, 2×10^5 cells were added to 96-well plates in the presence of isoluminol (10 μg/ml) and horseradish peroxidase (HRP; 4U/ml) and stimulated by the NOX2 inducer N-formyl-methionyl-leucyl-phenylalanine (fMLF; 0.1 μM). Light emission was recorded using a FLUOstar Omega platereader (BMG Labtech).
# EL-4 thymoma cell line = assay: EL-4 thymoma tumor growth in mice; type: in vivo, mouse; conditions: EL-4-bearing C57BL/6J mice; 1.5 mg histamine dihydrochloride i.p. three times per week; 240 μg each antibody i.p. days 3, 6 and 10
# Description: The EL-4 thymoma cell line (provided by Dr. Ingo Schmitz, Otto-von-Guericke-University, Magdeburg, Germany) was cultured in DMEM medium (Sigma, Stockholm, Sweden) supplemented with 10% fetal calf serum, 100 U/ml penicillin, 100 μg/ml streptomycin and 2 mM L-glutamine, as described in […]. et al. The Journal of Immunology, volume 194, no. 10, pp. 5014-5021. C57BL/6J mice (6-8 weeks old, purchased from Charles River Laboratories, Sulzfeld, Germany) were inoculated subcutaneously with 1.75-2×10^5 EL-4 tumor cells and treated with saline (control) or 1.5 mg histamine dihydrochloride (purchased from Sigma-Aldrich, Stockholm, Sweden) diluted in saline, by intraperitoneal injections three times per week starting one day before inoculation of cells. Two-hundred forty μg of an antibody against the programmed cell death-1 receptor (anti-mouse PD1, clone RMP1-14, referred to as a-PD1) and 240 μg of an antibody against the programmed death-ligand 1 (anti-mouse PD-L1, clone 10F.9G2, referred to as α-PDL1) (both purchased from BioXcell, West Lebanon, N.H., USA, catalogue numbers BE0146 and BE0101, respectively) were administrated by intraperitoneal injections three, six and ten days after tumor inoculation. Tumors were measured manually every 2-3 days. Tumor size was calculated as length× width.
Molecule,NK cell degranulation response (CD14+ CMML cells [1]),CMML-induced lymphocyte apoptosis / cell death [2],also measured
lintuzumab: a humanized anti-CD33 antibody,significantly augmented,,
catalase,,prevented,
CNC(=C[N+](=O)[O-])NCCOCc1ccc(CN(C)C)o1 [AH202399AA],,,reduction of affinity at H2R relative to ranitidine (H2R): > 50 fold
"c1ccc2c(c1)[I+]c1ccccc1-2 [DPI, diphenylene iodonium chloride]",,prevented,"CMML cell-induced apoptosis of sorted CD8+ T cell subsets (TN, TCM, TEM, Teff) ([2]; ratio 1:1, overnight): efficiently rescued all T cell subsets"
CN(C)CC(=O)Nc1ccc2[nH]c(=O)c3ccccc3c2c1 [PJ34],,rescued,NK cell receptor expression (NK cells): No down-regulation
"Cl.Cl.NCCc1c[nH]cn1 [HDC, histamine dihydrochloride]",further enhanced,prevented,ROS production (CD14+ CMML cells [3]): significantly suppressed; tumor growth (EL-4 thymoma cell line): significantly reduced tumor growth rate
